Key:
[1] = target: 5-hydroxytryptamine receptor 2A (Bos taurus, UniProt Q75Z89); assay: Binding affinity towards 5-hydroxytryptamine 2A receptor
[2] = target: 5-hydroxytryptamine receptor 1D (Sus scrofa, UniProt P79400); assay: Binding affinity for 5-hydroxytryptamine 1D receptor
[3] = target: T1, Serotonin 3 (5-HT3) receptor (Rattus norvegicus, UniProt P35563+Q9JJ16); assay: Binding affinity towards 5-hydroxytryptamine 3 receptor; assay type: protein-complex assay
T1 sequence (P35563 whole entry): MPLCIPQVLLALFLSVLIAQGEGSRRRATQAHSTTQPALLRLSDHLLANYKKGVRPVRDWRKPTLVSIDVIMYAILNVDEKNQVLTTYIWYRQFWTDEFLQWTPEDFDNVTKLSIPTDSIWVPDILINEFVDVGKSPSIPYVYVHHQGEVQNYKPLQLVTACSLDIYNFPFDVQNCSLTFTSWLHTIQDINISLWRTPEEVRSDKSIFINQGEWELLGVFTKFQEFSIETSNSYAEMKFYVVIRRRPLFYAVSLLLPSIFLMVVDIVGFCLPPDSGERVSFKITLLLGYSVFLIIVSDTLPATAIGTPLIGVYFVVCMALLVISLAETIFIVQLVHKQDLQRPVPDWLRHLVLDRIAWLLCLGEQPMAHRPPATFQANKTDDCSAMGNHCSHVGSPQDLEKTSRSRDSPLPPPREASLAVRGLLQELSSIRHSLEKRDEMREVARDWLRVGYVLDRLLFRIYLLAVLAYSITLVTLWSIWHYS
T1 sequence (Q9JJ16 whole entry): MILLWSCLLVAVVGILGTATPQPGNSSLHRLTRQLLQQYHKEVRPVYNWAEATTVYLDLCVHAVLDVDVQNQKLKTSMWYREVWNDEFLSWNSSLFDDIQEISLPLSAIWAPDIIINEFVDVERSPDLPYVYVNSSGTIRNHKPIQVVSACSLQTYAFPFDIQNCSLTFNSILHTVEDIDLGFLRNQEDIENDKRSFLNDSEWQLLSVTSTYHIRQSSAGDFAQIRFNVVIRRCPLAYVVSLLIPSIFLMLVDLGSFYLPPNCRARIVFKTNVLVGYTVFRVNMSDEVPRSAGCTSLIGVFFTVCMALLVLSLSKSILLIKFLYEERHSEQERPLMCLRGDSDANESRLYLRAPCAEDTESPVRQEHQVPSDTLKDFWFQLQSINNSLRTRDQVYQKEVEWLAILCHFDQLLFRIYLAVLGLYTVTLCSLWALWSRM

[4] = target: T2, 5-hydroxytryptamine receptor 1A (Homo sapiens, UniProt P08908); assay: Binding affinity for 5-hydroxytryptamine 1A receptor
T2 sequence (P08908 whole entry): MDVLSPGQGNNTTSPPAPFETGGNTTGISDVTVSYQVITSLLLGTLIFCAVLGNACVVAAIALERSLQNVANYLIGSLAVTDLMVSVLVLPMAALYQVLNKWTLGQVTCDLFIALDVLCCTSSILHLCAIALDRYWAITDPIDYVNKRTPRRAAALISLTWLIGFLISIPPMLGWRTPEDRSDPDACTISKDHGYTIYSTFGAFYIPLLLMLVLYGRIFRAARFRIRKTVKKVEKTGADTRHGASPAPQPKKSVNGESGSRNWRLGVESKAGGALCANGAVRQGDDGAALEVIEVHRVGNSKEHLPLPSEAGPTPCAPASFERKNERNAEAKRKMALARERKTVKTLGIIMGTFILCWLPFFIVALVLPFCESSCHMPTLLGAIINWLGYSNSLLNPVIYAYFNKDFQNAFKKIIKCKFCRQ

[5] = target: T3, 5-hydroxytryptamine receptor 2C (Homo sapiens, UniProt P28335); assay: Binding affinity towards 5-hydroxytryptamine 2C receptor
T3 sequence (P28335 whole entry): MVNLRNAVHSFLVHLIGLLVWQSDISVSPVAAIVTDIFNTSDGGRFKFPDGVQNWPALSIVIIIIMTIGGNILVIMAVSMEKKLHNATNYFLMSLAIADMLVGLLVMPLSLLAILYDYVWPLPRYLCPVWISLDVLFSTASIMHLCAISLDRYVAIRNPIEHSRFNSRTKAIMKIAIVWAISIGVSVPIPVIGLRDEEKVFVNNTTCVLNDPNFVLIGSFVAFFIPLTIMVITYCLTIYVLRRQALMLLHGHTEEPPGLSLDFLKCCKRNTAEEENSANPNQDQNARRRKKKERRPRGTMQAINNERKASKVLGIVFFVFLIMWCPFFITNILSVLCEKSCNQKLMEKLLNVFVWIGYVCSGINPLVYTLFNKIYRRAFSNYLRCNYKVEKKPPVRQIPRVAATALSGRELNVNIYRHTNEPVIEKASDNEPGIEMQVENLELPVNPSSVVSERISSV

[6] = target: 5-hydroxytryptamine receptor 1B (Rattus norvegicus, UniProt P28564); assay: Binding affinity for 5-hydroxytryptamine 1B receptor
5-hydroxytryptamine receptor 1B, sequence (P28564 whole entry): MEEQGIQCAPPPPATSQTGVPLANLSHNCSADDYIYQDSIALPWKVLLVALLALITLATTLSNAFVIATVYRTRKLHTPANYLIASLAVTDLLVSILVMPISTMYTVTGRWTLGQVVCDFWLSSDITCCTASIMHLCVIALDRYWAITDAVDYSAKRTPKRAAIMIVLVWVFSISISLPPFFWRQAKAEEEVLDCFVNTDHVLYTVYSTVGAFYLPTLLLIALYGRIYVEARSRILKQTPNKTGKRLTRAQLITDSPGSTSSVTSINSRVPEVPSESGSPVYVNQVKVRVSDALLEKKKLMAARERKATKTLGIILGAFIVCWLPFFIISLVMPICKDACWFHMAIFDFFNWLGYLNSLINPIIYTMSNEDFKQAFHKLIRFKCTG

5-hydroxytryptamine receptor 2A, sequence (Q75Z89 whole entry): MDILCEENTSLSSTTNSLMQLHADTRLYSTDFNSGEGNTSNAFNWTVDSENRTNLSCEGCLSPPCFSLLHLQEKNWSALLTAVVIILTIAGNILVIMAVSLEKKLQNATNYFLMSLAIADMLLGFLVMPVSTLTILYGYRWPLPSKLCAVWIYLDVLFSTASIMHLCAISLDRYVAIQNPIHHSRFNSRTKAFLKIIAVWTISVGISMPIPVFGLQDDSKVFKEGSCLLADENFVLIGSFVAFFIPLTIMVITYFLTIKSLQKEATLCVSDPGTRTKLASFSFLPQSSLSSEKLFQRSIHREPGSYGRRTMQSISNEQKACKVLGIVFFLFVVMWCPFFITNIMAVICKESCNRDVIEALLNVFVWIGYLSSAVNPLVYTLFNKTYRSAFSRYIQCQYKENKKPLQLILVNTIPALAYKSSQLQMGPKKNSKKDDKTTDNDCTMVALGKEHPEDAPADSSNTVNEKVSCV
5-hydroxytryptamine receptor 1D, sequence (P79400 whole entry): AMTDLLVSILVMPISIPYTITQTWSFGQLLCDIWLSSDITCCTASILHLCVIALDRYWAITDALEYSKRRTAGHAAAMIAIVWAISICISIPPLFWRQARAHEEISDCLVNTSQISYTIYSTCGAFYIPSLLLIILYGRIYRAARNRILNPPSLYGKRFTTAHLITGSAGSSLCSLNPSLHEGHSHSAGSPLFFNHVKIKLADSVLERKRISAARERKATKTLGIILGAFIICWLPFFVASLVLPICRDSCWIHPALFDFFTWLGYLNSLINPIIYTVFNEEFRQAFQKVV

| IC50 [1] [µM] | IC50 [2] [µM] | IC50 [3] [µM] | IC50 [4] [µM] | IC50 [5] [µM] | IC50 [6] [µM] | Compound |
| --- | --- | --- | --- | --- | --- | --- |
| 2.34 | 0.912 | 0.24 | 0.0525 | – | – | CN1CCN(c2nc3sccc3n3cccc23)CC1 |
| 1.29 | 0.398 | 0.813 | 0.117 | 0.24 | 11.2 | CN1CCN(c2nc3ccsc3n3cccc23)CC1 |
| 151 | 129 | 1050 | 102 | > 100 | 112 | O=C(c1ccc(F)cc1)N1CCN(c2nc3ccsc3n3cccc23)CC1 |
| 339 | > 100 | 589 | > 100 | 468 | > 100 | c1ccc(CN2CCN(c3nc4cc(-c5ccccc5)sc4n4cccc34)CC2)cc1 |
| 0.851 | 105 | 0.2 | 0.0832 | 0.708 | 0.646 | C(=C\c1ccccc1)/CN1CCN(c2nc3ccsc3n3cccc23)CC1 |
| > 100 | 537 | 39.8 | 389 | 1000 | > 100 | c1ccc(CN2CCN(c3nc4sc(-c5ccccc5)cc4n4cccc34)CC2)cc1 |
| 22.4 | 138 | 0.0214 | 0.347 | 7.41 | 14.5 | Fc1ccc(CN2CCN(c3nc4ccsc4n4cccc34)CC2)cc1 |
| 17.4 | > 100 | 0.126 | 7.76 | 15.5 | 40.7 | C[N+]1(Cc2ccccc2)CCN(c2nc3ccsc3n3cccc23)CC1 |
| 372 | > 100 | 245 | > 100 | 102 | 302 | Clc1ccc(N2CCN(c3nc4ccsc4n4cccc34)CC2)cc1 |
| 479 | 25.1 | 4.17 | 31.6 | 19.1 | 63.1 | Clc1ccc(CN2CCN(c3nc4sccc4n4cccc34)CC2)c(Cl)c1 |
| 112 | > 100 | > 100 | 457 | > 100 | – | C1=CCN(c2nc3ccsc3n3cccc23)CC1 |
| 447 | 275 | 97.7 | 43.7 | 72.4 | 70.8 | Fc1ccc(N2CCN(c3nc4ccsc4n4cccc34)CC2)cc1 |
| 39.8 | 93.3 | 20.9 | 32.4 | 41.7 | > 100 | c1cc2c(N3CCOCC3)nc3ccsc3n2c1 |
| 832 | 57.5 | 74.1 | 12.6 | 5.89 | 7.41 | FC(F)(F)c1cccc(N2CCN(c3nc4sccc4n4cccc34)CC2)c1 |
| 191 | 257 | 1.17 | 10.2 | 8.71 | 33.9 | Clc1ccc(CN2CCN(c3nc4sccc4n4cccc34)CC2)cc1Cl |
| 7.41 | 3.09 | 0.0166 | 0.661 | 0.851 | 4.68 | Clc1ccc(CN2CCN(c3nc4ccsc4n4cccc34)CC2)c(Cl)c1 |

| IC50 [1] [µM] | IC50 [2] [µM] | IC50 [3] [µM] | IC50 [4] [µM] | IC50 [5] [µM] | IC50 [6] [µM] | Compound |
| --- | --- | --- | --- | --- | --- | --- |
| 13.8 | 60.3 | 21.4 | 15.5 | 2.19 | > 100 | CN1CCN(c2nc3sc(-c4ccccc4)cc3n3cccc23)CC1 |
| 63.1 | 30.9 | 6.76 | 25.7 | 2.63 | 24 | c1ccc(CN2CCN(c3nc4scc(-c5ccccc5)c4n4cccc34)CC2)cc1 |
| 13.8 | 38 | 18.2 | 7.76 | 14.1 | 19.5 | Fc1ccc(CN2CCN(Cc3nc4ccsc4n4cccc34)CC2)cc1 |
| 1.07 | 0.135 | 0.0603 | 0.0933 | 0.347 | 1.1 | CCCN1CCN(c2nc3ccsc3n3cccc23)CC1 |
| 17.4 | 44.7 | 2.29 | 1.35 | 3.89 | 4.27 | Clc1ccc(CN2CCN(c3nc4ccsc4n4cccc34)CC2)cc1Cl |
| 174 | 525 | 3.63 | 126 | 155 | > 100 | Cc1sc2c(nc(N3CCN(Cc4ccccc4)CC3)c3cccn32)c1C |
| 24.5 | 20 | 0.00102 | – | 2.57 | 7.08 | c1cc2c(N3CCN(Cc4ccc5c(c4)OCO5)CC3)nc3sccc3n2c1 |
| 1.78 | 1.26 | 1.58 | 0.288 | 0.155 | – | FC(F)(F)c1cccc(N2CCN(c3nc4ccsc4n4cccc34)CC2)c1 |
| > 100 | > 100 | 72.4 | 64.6 | 57.5 | > 100 | c1cc2c(N3CCCCC3)nc3ccsc3n2c1 |
| > 100 | > 100 | > 100 | > 100 | 214 | 1380 | FC(F)(F)c1cccc(N2CCN(c3nc4cc(-c5ccccc5)sc4n4cccc34)CC2)c1 |
| 70.8 | 100 | 4.07 | 0.257 | 61.7 | 0.676 | CCOC(=O)CN1CCN(c2nc3ccsc3n3cccc23)CC1 |
| 0.933 | 2.57 | 0.0603 | 0.0617 | 0.355 | 10.2 | c1cc2c(N3CCN(CC4CC4)CC3)nc3ccsc3n2c1 |
| 87.1 | 35.5 | 2.95 | 17.8 | 1.07 | 19.1 | FC(F)(F)c1cccc(N2CCN(c3nc4scc(-c5ccccc5)c4n4cccc34)CC2)c1 |
| 302 | 35.5 | 2.45 | – | 10 | > 100 | c1ccc(-c2cc3nc(N4CCNCC4)c4cccn4c3s2)cc1 |
| 123 | 513 | 204 | 33.9 | > 100 | – | CCOC(=O)N1CCN(c2nc3ccsc3n3cccc23)CC1 |
| 18.6 | 0.123 | 1.32 | 0.0468 | – | 0.339 | CN1CCN(c2nc3cc(C(F)(F)F)ccc3n3cccc23)CC1 |

| Compound | IC50 [1] [µM] | IC50 [2] [µM] | IC50 [3] [µM] | IC50 [4] [µM] | IC50 [5] [µM] | IC50 [6] [µM] |
| --- | --- | --- | --- | --- | --- | --- |
| c1ccc(C2CCN(c3nc4ccsc4n4cccc34)CC2)cc1 | > 100 | > 100 | > 100 | > 100 | > 100 | > 100 |
| c1ccc(N2CCN(c3nc4ccsc4n4cccc34)CC2)cc1 | > 100 | > 100 | > 100 | > 100 | > 100 | – |
| c1ccc2nc(N3CCNCC3)ccc2c1 [QUIPAZINE] | 3.47 | 3.72 | – | – | 0.0617 | 7.08 |

Source: ChEMBL document CHEMBL1129317, “Novel selective and partial agonists of 5-HT3 receptors. Part 1. Synthesis and biological evaluation of piperazinopyrrolothienopyrazines” (J Med Chem, 1996)
